Measured values reported in PubChem BioAssay (NCI).
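Results reflect a 48-hour exposure of cells in 96-well plates to compound at five concentrations. Abbreviation: GI50, concentration required for 50% inhibition of growth. The concentration for full growth arrest is given as TGI.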

What was measured:
Assay in all cases: growth of human tumour cells (NCI), 48 h
[1] = test system: IGROV1 ovarian
[2] = test system: KM12 colon
[3] = test system: OVCAR-3 ovarian
[4] = test system: OVCAR-4 ovarian
[5] = test system: RXF 393 renal
[6] = test system: SR leukemia
[7] = test system: UACC-257 melanoma
[8] = test system: UO-31 renal
[9] = test system: NCI-H522 lung
[10] = test system: SK-MEL-2 melanoma

Row | Structure (SMILES) | GI50 [1] | TGI [1] | GI50 [2] | TGI [2] | GI50 [3] | TGI [3] | GI50 [4] | TGI [4] | GI50 [5] | TGI [5] | GI50 [6] | TGI [6] | GI50 [7] | TGI [7] | GI50 [8] | TGI [8] | GI50 [9] | TGI [9] | GI50 [10] | TGI [10]
1 | Nc1nc(N)c2nc3c(nc2n1)CCCCCCCCCC3 | 0.421 µM | > 100 µM | 8.6 µM | > 100 µM | 6.15 µM | > 100 µM | > 100 µM | > 100 µM | 4.12 µM | > 100 µM | 5.03 µM | > 100 µM | 2.4 µM | > 100 µM | 1.88 µM | > 100 µM | – | – | – | –
2 | CCCCOC1OC(COC(=O)C(C)C)C(OC(=O)C(C)C)C(O)C1OC1OC(C)C(OC(=O)CCC)C(OC(=O)C(C)C)C1O (configuration not stated) | 22.7 µM | 58.5 µM | 15.1 µM | 29 µM | 11.9 µM | 24.2 µM | 15.1 µM | 30.4 µM | 8.41 µM | 31.2 µM | – | – | 18.5 µM | 32.5 µM | 16.8 µM | 32.2 µM | 19100 nM | 39.6 µM | 36.2 µM | > 100 µM
3 | NC(=O)NC1C(C(=O)O)N(Cc2ccccc2)C(=O)N1Cc1ccccc1 (configuration not stated) | – | > 100 µM | – | > 100 µM | – | > 100 µM | – | > 100 µM | – | – | – | > 100 µM | – | > 100 µM | – | > 100 µM | – | > 100 µM | – | > 100 µM
4 | CC([O-])=C1C(=O)c2ccccc2C1=O.CC([O-])=C1C(=O)c2ccccc2C1=O.CC[O-].CC[O-].[Ti+4] | > 100 µM | > 100 µM | > 100 µM | > 100 µM | > 100 µM | > 100 µM | > 100 µM | > 100 µM | – | – | > 100 µM | > 100 µM | > 100 µM | > 100 µM | > 100 µM | > 100 µM | > 100000 nM | > 100 µM | > 100 µM | > 100 µM
5 | COc1cccc(N2C(=O)C3C4C=C5c6ccccc6N(c6ccccc6)C5(C3C2=O)[C@H]2C(=O)N(c3cccc(OC)c3)C(=O)[C@@H]42)c1 (some centres not stated) | – | > 100 µM | – | > 100 µM | – | > 100 µM | – | > 100 µM | – | > 100 µM | – | > 100 µM | – | > 100 µM | – | > 100 µM | – | – | – | > 100 µM
6 | O=C(O)c1c(Br)c(Br)c(Br)c(Br)c1C1c2ccc(O)cc2Oc2cc(O)ccc21 | – | > 100 µM | – | > 100 µM | – | > 100 µM | – | > 100 µM | – | > 100 µM | – | – | – | > 100 µM | – | > 100 µM | – | > 100 µM | – | > 100 µM
7 | CCC1(CN(C)C)CC/C(=C\c2ccc(OC)c(OC)c2)C1=O (configuration not stated) | – | > 100 µM | – | > 100 µM | – | > 100 µM | – | > 100 µM | – | > 100 µM | – | – | – | > 100 µM | – | > 100 µM | – | > 100 µM | – | > 100 µM
8 | COCCOCCOCCOc1cccc2c1C(=O)c1cccc(OCCOCCOCCOC)c1C2=O | – | > 100 µM | – | – | – | > 100 µM | – | > 100 µM | – | > 100 µM | – | – | – | > 100 µM | – | – | – | – | – | –
9 | CC(=O)c1ccc(NC(=O)C(=O)C(C#N)CC(C)(C)C=O)cc1 (configuration not stated) | – | > 100 µM | – | > 100 µM | – | > 100 µM | – | > 100 µM | – | – | – | > 100 µM | – | > 100 µM | – | > 100 µM | – | > 100 µM | – | > 100 µM
10 | O=C1CC/C(=C/COc2cc(=O)oc3ccccc23)O1 | 5.05 µM | 19.5 µM | 7.14 µM | 25.1 µM | 5.41 µM | 21.1 µM | 1.62 µM | 14.4 µM | 6.9 µM | 21 µM | – | – | 12.9 µM | 27.7 µM | 7.65 µM | 21.2 µM | 1730 nM | 4.36 µM | 6.78 µM | 37.1 µM
11 | CCOc1ccc2c(c1)c(CC(=O)O)cn2C | – | – | – | > 100 µM | – | > 100 µM | – | – | – | > 100 µM | – | > 100 µM | – | > 100 µM | – | > 100 µM | – | > 100 µM | – | > 100 µM
12 | C=C(C(=C)P(=S)(C(C)C)C(C)C)P(=S)(C(C)C)C(C)C | – | > 100 µM | – | > 100 µM | – | > 100 µM | – | > 100 µM | – | > 100 µM | – | > 100 µM | – | > 100 µM | – | > 100 µM | – | > 100 µM | – | –
13 | Cc1ccc(-n2nnnc2-c2cnc(N3CCOCC3)nc2-c2cccc(C(F)(F)F)c2)cc1 | 1.63 µM | > 10.7 µM | 1.26 µM | 3.59 µM | 1.05 µM | 2.81 µM | – | – | 1.99 µM | > 14.5 µM | 1.13 µM | 3.17 µM | 4.88 µM | > 30.5 µM | 1.14 µM | – | 1890 nM | > 12.9 µM | > 10.8 µM | > 50 µM
14 | CC(=O)O[C@H]1CC[C@@]2(C)C(=C/C(=N/OCCN3CCCC3)[C@H]3[C@@H]4CC[C@H](OC(C)=O)[C@@]4(C)CC[C@@H]32)C1 | 31.4 µM | > 100 µM | 40.7 µM | > 100 µM | > 100 µM | > 100 µM | > 100 µM | > 100 µM | – | – | 10.4 µM | 44.1 µM | – | – | 20.8 µM | 53.3 µM | 47500 nM | > 100 µM | 26.3 µM | 65 µM
15 | CCCCCCCCCCCc1c(O)c(=O)c2c(oc3c(=O)c(CCCCCCCCCCC)c(O)c(=O)c3n2-c2ccc(N(C)C)cc2)c1=O | – | 48.1 µM | – | 26.8 µM | – | 38.6 µM | – | 30.7 µM | – | 44.4 µM | – | > 100 µM | – | 40.2 µM | – | – | – | > 100 µM | – | 50.4 µM
16 | Cc1[nH]c2cc(F)ccc2c1-c1nc2c3cccnc3c3ncccc3c2[nH]1 | – | – | 0.379 µM | 1.78 µM | 0.209 µM | 1.56 µM | 0.0438 µM | 1.23 µM | 0.19 µM | 0.785 µM | 0.0723 µM | 0.797 µM | 0.228 µM | 0.833 µM | 0.266 µM | 0.929 µM | 391 nM | 1.46 µM | 0.504 µM | 1.75 µM
17 | CCCCNc1ccc(Nc2ccccc2)cc1 | 5.61 µM | 27.2 µM | 4.02 µM | 32.6 µM | 3.79 µM | > 100 µM | 4.35 µM | > 100 µM | – | – | – | – | – | – | 14.4 µM | 43.1 µM | – | – | – | –
